# Patent US20140274990A1, “CEFTOLOZANE PHARMACEUTICAL COMPOSITIONS” (Cubist Pharmaceuticals, Inc., priority 2013, published 2014)
# Test: stability testing of initial lyophilized ceftolozane pharmaceutical compositions, HPLC
# Assay type: physicochemical
# Details: certain lyophilized pharmaceutical compositions initially evaluated for intravenous administration
# Text: As disclosed herein, ceftolozane was unstable in certain lyophilized pharmaceutical compositions initially evaluated for intravenous administration. In particular, a decrease in ceftolozane purity and the formation of multiple additional related substances were detected in certain initial ceftolozane pharmaceutical compositions by peaks in […] (HPLC) after stability testing. This testing pointed to the need to develop novel ceftolozane formulations providing increased ceftolozane stability. […] Nor does this disclosure provide guidance on the formation of ceftolozane pharmaceutical compositions to increase ceftolozane purity during stability testing or control the relative amounts of ceftolozane related substances detected by HPLC peak formation during stability testing.
smiles,measurement,value
"Cn1c(N)c(NC(=O)NCCN)c[n+]1CC1=C(C(=O)O)N2C(=O)[C@@H](NC(=O)/C(=N\OC(C)(C)C(=O)[O-])c3nsc(N)n3)[C@H]2SC1 [ceftolozane, (6R,7R)-3-[(5-amino-4-{[(2-aminoethyl)carbamoyl]amino}-1-methyl-1H-pyrazol-2-ium-2-yl)methyl]-7-({(2Z)-2-(5-amino-1,2,4-thiadiazol-3-yl)-2-[(1-carboxy-1-methylethoxy)imino]acetyl}amino)-8-oxo-5-thia-1-azabicyclo[4.2.0]oct-2-ene-2-carboxylate]",ceftolozane stability in lyophilized composition,unstable
